Measured values published in patent US6630471B1, “Substituted triazolo-pyridazine derivative, pharmaceutical compositions made therefrom” (Merck Sharp & Dohme Ltd., priority 1998, dated 2003).
Blank lines part the entries; values can stand above or below the compound they belong to.

How the values were obtained:
[1] = moisture vapour sorption (adsorption/desorption isotherm); format: physicochemical
Description: These moisture vapour sorption studies show formation of a dihydrate above 80% relative humidity (RH) at 25° C. Hysteresis indicative of hydrate formation is seen to occur, with desorption occurring below ca. 60% RH.

[2] = aqueous solubility; format: physicochemical
From the text: This conversion is slow due to the low aqueous solubility of Compound I in relation to the large excess of solid compound slurried.

relative humidity of dihydrate formation ([1]; 25° C., adsorption): above 80 % relative humidity (RH) | relative humidity of desorption (hysteresis) ([1]; 25° C., desorption): < 60 % RH
Structure (SMILES): CCn1ncnc1COc1nn2c(-c3ccccc3F)nnc2cc1C(C)(C)C [Compound I polymorph A, 7-(1,1-Dimethylethyl)-6-(2-ethyl-2H-1,2,4-triazol-3-ylmethoxy)-3-(2-fluorophenyl)-1,2,4-triazolo[4,3-b]pyridazine]

stability of the dihydrate ([1]; humidity): stable, but only at elevated humidities
Structure (SMILES): CCn1ncnc1COc1nn2c(-c3ccccc3F)nnc2cc1C(C)(C)C [dihydrate of polymorph A, 7-(1,1-Dimethylethyl)-6-(2-ethyl-2H-1,2,4-triazol-3-ylmethoxy)-3-(2-fluorophenyl)-1,2,4-triazolo[4,3-b]pyridazine]

aqueous solubility [2]: low
Structure (SMILES): CCn1ncnc1COc1nn2c(-c3ccccc3F)nnc2cc1C(C)(C)C [Compound I, 7-(1,1-Dimethylethyl)-6-(2-ethyl-2H-1,2,4-triazol-3-ylmethoxy)-3-(2-fluorophenyl)-1,2,4-triazolo[4,3-b]pyridazine]
